The values that follow come from patent US4327097A, “Novel penicillins” (Toyama Chemical Co., Ltd., priority 1974, dated 1982).

In one assay the test system is Klebsiella pneumoniae. Nature of the assay: MIC, plate method, standard strains. It counts as cell-based. Conditions: Table 4, standard strain; unit assumed. A digest of the protocol:
(§1)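 MIC read as the lowest inhibitory concentration on Heart infusion agar plates buffered to pH 7.4, each spotted with 10^4 cells drawn from a 10^6 cells/ml suspension.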

Assay [1] relates to Pseudomonas aeruginosa I.F.O. Nature of the assay: MIC, plate method, standard strains. It counts as cell-based. Conditions: Table 4, standard strain; unit assumed. A digest of the protocol: as §1
Another assay concerns Escherichia coli NIHJ. Nature of the assay: MIC, plate method, standard strains. It counts as cell-based. Conditions: Table 4, standard strain; unit assumed. A digest of the protocol:
as §1

Assay [2] deals with Staphylococcus aureus 209p. Put plainly: MIC, plate method, standard strains. It counts as cell-based. The settings on record: Table 4, standard strain; unit assumed. A digest of the protocol: as §1
The subject of a further assay is Proteus vulgaris 3027. Nature of the assay: MIC, plate method, standard strains. It counts as cell-based. The settings on record: Table 4, standard strain; unit assumed. A digest of the protocol:
as §1

Assay [3] addresses T1, β-lactamase, Proteus vulgaris GN 76 (Proteus vulgaris, UniProt P52664).
T1 construct: By using the supernatant of enzyme fluid; endogenous in cells; host or cells: Proteus vulgaris GN 76 (penicillin G-induced cells, sonicated, 15,000 r.p.m. supernatant)
Nature of the assay: Resistant activity against β-lactamase, iodometric assay. It counts as biochemical. Conditions: control Cephalorizine = 100. The procedure: (§2) (4) Resistant activity of each cephalosporin compound against β-lactamase, Proteus vulgaris GN 76 and Escherichia freundii GN 346:
(§3) The resistant activity of each cephalosporin compound against β-lactamase was measured in the manner described below.
(§4) β-lactamase was prepared from Proteus vulgaris GN 76 and Escherichia freundii GN 346. 10 ml of an overnight culture in Heart Infusion broth was diluted with 100 ml of a medium containing 2 g of yeast extract, 10 g of polypeptone, 2 g of glucose, 7 g of disodium hydrogen phosphate, 2 g of potassium dihydrogen phosphate, 1.2 g of ammonium sulfate and 0.4 g of magnesium sulfate, per liter, and incubated with shaking at 37° C. After incubation of 2 hrs, Penicillin G (50 μg/ml) was added as the inducer, and further incubated for 2 hrs. The resulting cells were collected by centrifugation (5,000 r.p.m.×10 min.) and washed two times with 0.1 M phosphate buffer (pH 7.0). Subsequently, the cells were subjected to sonication (20 KHz, 5 min.) and then centrifuged at 15,000 r.p.m. for 60 min. By using the supernatant of enzyme fluid, the stability of each compound against β-lactamase was determined by the iodometric assay method. Each numeral shown in Table 7-2 is a relative activity value calculated by assuming as 100 the activity of the control Cephalorizine.

The target in assay [4] is β-lactamase, Escherichia freundii GN 346 (Citrobacter freundii, UniProt Q46041). The description is as above. It counts as biochemical. The settings on record: control Cephalorizine = 100. The procedure: as §2, §3, §4

≈ marks a conversion by molar mass, not a printed value.

β-lactamase, Escherichia freundii GN 346, sequence (Q46041 entry or part of it): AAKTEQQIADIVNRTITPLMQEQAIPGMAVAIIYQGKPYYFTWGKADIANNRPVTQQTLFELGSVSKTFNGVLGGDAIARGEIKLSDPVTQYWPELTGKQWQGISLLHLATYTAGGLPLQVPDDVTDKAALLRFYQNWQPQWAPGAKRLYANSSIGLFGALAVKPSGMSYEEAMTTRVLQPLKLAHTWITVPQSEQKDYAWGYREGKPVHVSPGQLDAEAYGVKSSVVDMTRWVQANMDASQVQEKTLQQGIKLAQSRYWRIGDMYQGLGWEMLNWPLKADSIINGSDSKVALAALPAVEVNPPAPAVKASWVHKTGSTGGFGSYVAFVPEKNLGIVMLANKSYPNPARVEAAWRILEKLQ
T1 sequence (P52664 30-300): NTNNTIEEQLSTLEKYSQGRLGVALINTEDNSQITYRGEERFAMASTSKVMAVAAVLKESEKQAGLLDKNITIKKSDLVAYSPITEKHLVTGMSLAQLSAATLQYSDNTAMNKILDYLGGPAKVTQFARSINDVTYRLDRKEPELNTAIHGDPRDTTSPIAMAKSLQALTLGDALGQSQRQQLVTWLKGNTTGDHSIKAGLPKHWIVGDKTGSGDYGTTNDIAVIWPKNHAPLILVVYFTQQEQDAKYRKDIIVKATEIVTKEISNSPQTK

`CCN1CCN(C(=O)NC(C(=O)NC2C(=O)N3C(C(=O)O)=C(CSc4nnc(C)s4)CSC23)c2ccc(O)cc2)C(=O)C1=O` (single isomer, unassigned) [Compound No. 76] registered an MIC Klebsiella pneumoniae against Klebsiella pneumoniae of 0.79 µg/mL (≈ 1.19 µM). The molecule also returned an MIC Pseudomonas aeruginosa I.F.O. in assay [1] of 50 µg/mL (≈ 75.6 µM). Moreover, the MIC Escherichia coli NIHJ with Escherichia coli NIHJ is below 0.4 µg/mL. This molecule also came in with an MIC Staphylococcus aureus 209p in assay [2] of 1.57 µg/mL (≈ 2.37 µM). For the same molecule, the MIC Proteus vulgaris 3027 in the assay with Proteus vulgaris 3027 was determined as 3.13 µg/mL (≈ 4.73 µM). In addition, the “Relative activity (%) against β-lactamase, Pr. vulgaris GN 76” value (from here on “Relative activity (%) … Pr. vulgaris GN 76”) in assay [3] was found to be 11%. Moreover, the “Relative activity (%) against β-lactamase, E. freundii GN 346” value (“Relative activity (%) … E. freundii GN 346” for short) in assay [4] was determined as 1%.

With `CCN1CCN(C(=O)NC(C(=O)NC2C(=O)N3C(C(=O)O)=C(COC(C)=O)CSC23)c2ccc(O)cc2)C(=O)C1=O` (single isomer, unassigned) [Compound No. 81], the MIC Klebsiella pneumoniae with Klebsiella pneumoniae is below 1.57 µg/mL. Further, the MIC Pseudomonas aeruginosa I.F.O. in assay [1] worked out at 12.5 µg/mL (≈ 21.2 µM). In addition, in the assay on Escherichia coli NIHJ, the MIC Escherichia coli NIHJ is below 1.57 µg/mL. In assay [2], this molecule showed an MIC Staphylococcus aureus 209p below 1.57 µg/mL. Further, in the assay on Proteus vulgaris 3027, the MIC Proteus vulgaris 3027 is below 1.57 µg/mL. The “Relative activity (%) … Pr. vulgaris GN 76” value in assay [3] is given as 6%. Further, in assay [4], the “Relative activity (%) … E. freundii GN 346” value is listed as 0.4%.

In the assay with Klebsiella pneumoniae, `CCN1CCN(C(=O)NC(C(=O)NC2C(=O)N3C(C(=O)O)=C(COC(N)=O)CSC23)c2ccc(O)cc2)C(=O)C1=O` (single isomer, unassigned) [Compound No. 84] registered an MIC Klebsiella pneumoniae below 1.57 µg/mL. For the same molecule, in assay [1], the MIC Pseudomonas aeruginosa I.F.O. was 25 µg/mL (≈ 42.3 µM). The molecule also registered an MIC Escherichia coli NIHJ in the assay on Escherichia coli NIHJ below 1.57 µg/mL. The MIC Staphylococcus aureus 209p in assay [2] was below 1.57 µg/mL. Further, in the assay on Proteus vulgaris 3027, the MIC Proteus vulgaris 3027 was below 1.57 µg/mL. For the same molecule, the “Relative activity (%) … Pr. vulgaris GN 76” value in assay [3] came to 10%. The “Relative activity (%) … E. freundii GN 346” value in assay [4] came to 1%.
